The values that follow come from patent publication US7381748B1, “Compounds and related methods for inhibition of gamma-aminobutyric acid aminotransferase” (Northwestern University, priority 2002, dated 2008).

Where a name gives a salt, the structure may show the parent alone. Read-outs that look alike come from different tables or passages of the source.

A word on the Km: it is the substrate concentration at which the rate is half of its maximum. The kcat is the maximal rate divided by the concentration of active sites.

For test [1], the target named is T1, GABA-AT (Sus scrofa, UniProt P80147).
T1 construct: purchased
Particulars: cited from earlier work.

The target in test [2] is T1, GABA-AT. As to the kind of experiment: Time-dependent inactivation of GABA-AT. The test is classed as biochemical. The source says: Fluorine incorporation may also make a corresponding intermediate sufficiently reactive to be trapped by the enzyme. While the cis isomer is shown in Scheme 6.
Then a secondary plot of half-life versus the reciprocal of inactivator concentration was obtained to determine KI and kinact.

Test [3] concerns the target T1, GABA-AT. Particulars: as substrate of GABA-AT; cited from earlier work.

T1 sequence (P80147 29-500): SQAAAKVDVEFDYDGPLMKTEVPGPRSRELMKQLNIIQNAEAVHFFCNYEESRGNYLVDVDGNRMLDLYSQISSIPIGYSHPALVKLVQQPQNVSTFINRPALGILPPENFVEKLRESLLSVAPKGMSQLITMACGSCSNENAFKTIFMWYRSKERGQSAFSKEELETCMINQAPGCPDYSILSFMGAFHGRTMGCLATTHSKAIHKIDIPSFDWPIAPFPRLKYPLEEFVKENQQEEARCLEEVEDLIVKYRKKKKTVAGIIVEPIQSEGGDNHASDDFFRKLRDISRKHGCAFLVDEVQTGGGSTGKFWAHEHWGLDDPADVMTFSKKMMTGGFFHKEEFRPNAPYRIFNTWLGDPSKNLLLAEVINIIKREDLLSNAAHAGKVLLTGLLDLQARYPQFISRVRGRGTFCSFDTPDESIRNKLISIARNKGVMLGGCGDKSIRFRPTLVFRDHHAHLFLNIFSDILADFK

For `C=CC(N)CCC(=O)O` (stereo not shown) [vigabatrin], in test [1], the “share of total inactivation accounted for by pathway a (Michael addition)” value is 70-75%. With `NC1CC(C(=O)O)C/C1=C/F` [Compound 22, (Z)-(1S, 3S)-3-Amino-4-fluoromethylenyl-1-cyclopentanoic acid, hydrochloride salt], in test [2], the “time-dependent inhibition of GABA-AT (in words)” value is reported as “potent time-dependent inhibitors of GABA-AT”. Same read-out and setting: then `NC1CC(C(=O)O)C/C1=C\F` [Compound 20, (E)-(1S, 3S)-3-Amino-4-fluoromethylenyl-1-cyclopentanoic acid, hydrochloride salt], with “potent time-dependent inhibitors of GABA-AT”. Take `C=C1C[C@H](C(=O)O)C[C@@H]1N` [Compound 7, 3β-Amino-4-methylenylcyclopentane-1β-carboxylic acid]: the “GABA-AT inactivation (in words)” value is reported as “no inactivation was observed” in test [1] (2-mercaptoethanol added to the incubation mixture) and “inactivated GABA-AT” in test [1] (no 2-mercaptoethanol added).

With `NCCCC(=O)O` [GABA, γ-aminobutyric acid], in test [3], the Km was 2400 µM and the kcat was 0.817 s⁻¹.
